Assay: xn = mol fraction of the nth substance listed
Details: Liquid; for viscosity: 100 kPa, Capillary tube (Ostwald / Ubbelohde) method; for mass density: 1000 kPa, Vibrating tube method

COC(C)(C)C [2-methoxy-2-methylpropane] + CCCCCCC
Details | mass density [kg/m3] | viscosity [mPa·s]
273.15 K, x1 = 0.1004 | – | 0.515
273.15 K, x1 = 0.1042 | 705.19 | –
273.15 K, x1 = 0.1998 | – | 0.507
273.15 K, x1 = 0.2146 | 710.4 | –
273.15 K, x1 = 0.3008 | – | 0.494
273.15 K, x1 = 0.3024 | 714.67 | –
273.15 K, x1 = 0.3982 | 719.73 | –
273.15 K, x1 = 0.4024 | – | 0.485
273.15 K, x1 = 0.4996 | 725.44 | –
273.15 K, x1 = 0.5007 | – | 0.476
273.15 K, x1 = 0.5875 | 730.85 | –
273.15 K, x1 = 0.5989 | – | 0.468
273.15 K, x1 = 0.6981 | – | 0.462
273.15 K, x1 = 0.6985 | 738.08 | –
273.15 K, x1 = 0.7887 | – | 0.456
273.15 K, x1 = 0.794 | 744.8 | –
273.15 K, x1 = 0.889 | 752 | –
273.15 K, x1 = 0.898 | – | 0.448
278.15 K, x1 = 0.1004 | – | 0.484
278.15 K, x1 = 0.1042 | 700.96 | –
278.15 K, x1 = 0.1998 | – | 0.474
278.15 K, x1 = 0.2146 | 706.09 | –
278.15 K, x1 = 0.3008 | – | 0.464
278.15 K, x1 = 0.3024 | 710.3 | –
278.15 K, x1 = 0.3982 | 715.27 | –
278.15 K, x1 = 0.4024 | – | 0.456
278.15 K, x1 = 0.4996 | 720.9 | –
278.15 K, x1 = 0.5007 | – | 0.448
278.15 K, x1 = 0.5875 | 726.22 | –
278.15 K, x1 = 0.5989 | – | 0.44
278.15 K, x1 = 0.6981 | – | 0.433
278.15 K, x1 = 0.6985 | 733.34 | –
278.15 K, x1 = 0.7887 | – | 0.427
278.15 K, x1 = 0.794 | 739.96 | –
278.15 K, x1 = 0.889 | 747.05 | –
278.15 K, x1 = 0.898 | – | 0.421
283.15 K, x1 = 0.1004 | – | 0.455
283.15 K, x1 = 0.1042 | 696.72 | –
283.15 K, x1 = 0.1998 | – | 0.446
283.15 K, x1 = 0.2146 | 701.76 | –
283.15 K, x1 = 0.3008 | – | 0.437
283.15 K, x1 = 0.3024 | 705.9 | –
283.15 K, x1 = 0.3982 | 710.79 | –
283.15 K, x1 = 0.4024 | – | 0.429
283.15 K, x1 = 0.4996 | 716.32 | –
283.15 K, x1 = 0.5007 | – | 0.422
283.15 K, x1 = 0.5875 | 721.55 | –
283.15 K, x1 = 0.5989 | – | 0.414
283.15 K, x1 = 0.6981 | – | 0.408
283.15 K, x1 = 0.6985 | 728.56 | –
283.15 K, x1 = 0.7887 | – | 0.403
283.15 K, x1 = 0.794 | 735.08 | –
283.15 K, x1 = 0.889 | 742.07 | –
283.15 K, x1 = 0.898 | – | 0.397
288.15 K, x1 = 0.1004 | – | 0.429
288.15 K, x1 = 0.1042 | 692.45 | –
288.15 K, x1 = 0.1998 | – | 0.421
288.15 K, x1 = 0.2146 | 697.4 | –
288.15 K, x1 = 0.3008 | – | 0.413
288.15 K, x1 = 0.3024 | 701.47 | –
288.15 K, x1 = 0.3982 | 706.28 | –
288.15 K, x1 = 0.4024 | – | 0.405
288.15 K, x1 = 0.4996 | 711.72 | –
288.15 K, x1 = 0.5007 | – | 0.398
288.15 K, x1 = 0.5875 | 716.86 | –
288.15 K, x1 = 0.5989 | – | 0.391
288.15 K, x1 = 0.6981 | – | 0.385
288.15 K, x1 = 0.6985 | 723.76 | –
288.15 K, x1 = 0.7887 | – | 0.38
288.15 K, x1 = 0.794 | 730.17 | –
288.15 K, x1 = 0.889 | 737.04 | –
288.15 K, x1 = 0.898 | – | 0.375
293.15 K, x1 = 0.1004 | – | 0.406
293.15 K, x1 = 0.1042 | 688.15 | –
293.15 K, x1 = 0.1998 | – | 0.398
293.15 K, x1 = 0.2146 | 693.02 | –
293.15 K, x1 = 0.3008 | – | 0.39
293.15 K, x1 = 0.3024 | 697.02 | –
293.15 K, x1 = 0.3982 | 701.73 | –
293.15 K, x1 = 0.4024 | – | 0.383
293.15 K, x1 = 0.4996 | 707.09 | –
293.15 K, x1 = 0.5007 | – | 0.376
293.15 K, x1 = 0.5875 | 712.13 | –
293.15 K, x1 = 0.5989 | – | 0.369
293.15 K, x1 = 0.6981 | – | 0.364
293.15 K, x1 = 0.6985 | 718.92 | –
293.15 K, x1 = 0.7887 | – | 0.359
293.15 K, x1 = 0.794 | 725.22 | –
293.15 K, x1 = 0.889 | 731.98 | –
298.15 K, x1 = 0.1004 | – | 0.384
298.15 K, x1 = 0.1042 | 683.83 | –
298.15 K, x1 = 0.1998 | – | 0.377
298.15 K, x1 = 0.2146 | 688.62 | –
298.15 K, x1 = 0.3008 | – | 0.37
298.15 K, x1 = 0.3024 | 692.54 | –
298.15 K, x1 = 0.3982 | 697.16 | –
298.15 K, x1 = 0.4024 | – | 0.363
298.15 K, x1 = 0.4996 | 702.42 | –
298.15 K, x1 = 0.5007 | – | 0.357
298.15 K, x1 = 0.5875 | 707.37 | –
298.15 K, x1 = 0.6985 | 714.04 | –
298.15 K, x1 = 0.794 | 720.23 | –
298.15 K, x1 = 0.889 | 726.87 | –
303.15 K, x1 = 0.1004 | – | 0.365
303.15 K, x1 = 0.1042 | 679.49 | –
303.15 K, x1 = 0.1998 | – | 0.358
303.15 K, x1 = 0.2146 | 684.18 | –
303.15 K, x1 = 0.3008 | – | 0.351
303.15 K, x1 = 0.3024 | 688.02 | –
303.15 K, x1 = 0.3982 | 692.55 | –
303.15 K, x1 = 0.4024 | – | 0.344
303.15 K, x1 = 0.4996 | 697.72 | –
303.15 K, x1 = 0.5875 | 702.57 | –
303.15 K, x1 = 0.6985 | 709.11 | –
303.15 K, x1 = 0.794 | 715.19 | –
303.15 K, x1 = 0.889 | 721.72 | –
308.15 K, x1 = 0.1004 | – | 0.347
308.15 K, x1 = 0.1042 | 675.12 | –
308.15 K, x1 = 0.1998 | – | 0.34
308.15 K, x1 = 0.2146 | 679.71 | –
308.15 K, x1 = 0.3024 | 683.48 | –
308.15 K, x1 = 0.3982 | 687.91 | –
308.15 K, x1 = 0.4996 | 692.98 | –
308.15 K, x1 = 0.5875 | 697.73 | –
308.15 K, x1 = 0.6985 | 704.14 | –
308.15 K, x1 = 0.794 | 710.11 | –
313.15 K, x1 = 0.1004 | – | 0.33
313.15 K, x1 = 0.1042 | 670.71 | –
313.15 K, x1 = 0.2146 | 675.19 | –
313.15 K, x1 = 0.3024 | 678.89 | –
313.15 K, x1 = 0.3982 | 683.23 | –
313.15 K, x1 = 0.4996 | 688.2 | –
313.15 K, x1 = 0.5875 | 692.85 | –
313.15 K, x1 = 0.6985 | 699.12 | –
318.15 K, x1 = 0.1042 | 666.28 | –
318.15 K, x1 = 0.2146 | 670.65 | –
318.15 K, x1 = 0.3024 | 674.26 | –
318.15 K, x1 = 0.3982 | 678.51 | –
318.15 K, x1 = 0.4996 | 683.38 | –
318.15 K, x1 = 0.5875 | 687.92 | –
323.15 K, x1 = 0.1042 | 661.8 | –
323.15 K, x1 = 0.2146 | 666.08 | –
323.15 K, x1 = 0.3024 | 669.6 | –
323.15 K, x1 = 0.3982 | 673.75 | –
323.15 K, x1 = 0.4996 | 678.5 | –
328.15 K, x1 = 0.1042 | 657.27 | –
328.15 K, x1 = 0.2146 | 661.46 | –
328.15 K, x1 = 0.3024 | 664.89 | –
328.15 K, x1 = 0.3982 | 668.93 | –
333.15 K, x1 = 0.1042 | 652.74 | –
333.15 K, x1 = 0.2146 | 656.77 | –
333.15 K, x1 = 0.3024 | 660.13 | –
338.16 K, x1 = 0.1042 | 648.13 | –
338.16 K, x1 = 0.2146 | 652.07 | –
343.16 K, x1 = 0.1042 | 643.27 | –

Source: the NIST ThermoML archive (doi:10.1021/je600554h)
